Test results: ChEMBL document CHEMBL1133354, “5-Thienyltryptamine derivatives as serotonin 5-HT1B/1D receptor agonists: potential treatments for migraine” (Bioorg Med Chem Lett, 2000)

Tests used:
[1] = target: 5-hydroxytryptamine receptor 1B (Homo sapiens, UniProt P28222); experiment: Binding affinity for human 5-hydroxytryptamine 1B receptor
[2] = target: 5-hydroxytryptamine receptor 1D (Homo sapiens, UniProt P28221); experiment: Binding affinity for human 5-hydroxytryptamine 1D receptor
5-hydroxytryptamine receptor 1D, sequence (P28221 whole entry): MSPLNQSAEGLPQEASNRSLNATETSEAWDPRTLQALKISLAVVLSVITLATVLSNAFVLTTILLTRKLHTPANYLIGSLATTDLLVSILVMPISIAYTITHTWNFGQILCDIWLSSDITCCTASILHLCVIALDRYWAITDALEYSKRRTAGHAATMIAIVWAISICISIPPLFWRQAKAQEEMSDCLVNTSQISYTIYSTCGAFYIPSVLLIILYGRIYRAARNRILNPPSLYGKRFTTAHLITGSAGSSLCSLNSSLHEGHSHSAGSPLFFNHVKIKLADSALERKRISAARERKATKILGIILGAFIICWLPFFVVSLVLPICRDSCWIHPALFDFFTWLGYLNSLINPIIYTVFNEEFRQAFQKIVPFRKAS

5-hydroxytryptamine receptor 1B, sequence (P28222 whole entry): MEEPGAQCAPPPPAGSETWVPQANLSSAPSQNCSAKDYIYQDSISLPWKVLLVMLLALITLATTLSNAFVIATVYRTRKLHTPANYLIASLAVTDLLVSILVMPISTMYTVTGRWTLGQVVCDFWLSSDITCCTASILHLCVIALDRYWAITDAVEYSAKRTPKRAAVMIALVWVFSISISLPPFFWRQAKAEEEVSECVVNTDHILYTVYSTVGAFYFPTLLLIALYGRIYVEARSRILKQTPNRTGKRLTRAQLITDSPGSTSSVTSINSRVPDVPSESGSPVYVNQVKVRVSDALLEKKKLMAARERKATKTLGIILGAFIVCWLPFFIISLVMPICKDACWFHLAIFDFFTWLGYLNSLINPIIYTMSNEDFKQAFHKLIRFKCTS

Structure (SMILES)	Ki [1] [nM]	Ki [2] [nM]
CN(C)CCc1c[nH]c2ccc(-c3cccs3)cc12	23	0.7
CN(C)CCc1c[nH]c2ccc(-c3ccsc3)cc12	17	0.5
C1=CCN(CCc2c[nH]c3ccc(-c4cccs4)cc23)C1	107	4.5
CC1CCC(C)N1CCc1c[nH]c2ccc(-c3cccs3)cc12 (configuration not stated)	70	2.5
OC[C@@H]1CCCN1CCc1c[nH]c2ccc(-c3cccs3)cc12	113	8.2
Cc1ccc(-c2ccc3[nH]cc(CCN(C)C)c3c2)s1	133	3.2
c1csc(-c2ccc3[nH]cc(CCN4CCCC4)c3c2)c1	714	19
NCCc1c[nH]c2ccc(-c3cccs3)cc12	32	1.7
COC[C@@H]1CCCN1CCc1c[nH]c2ccc(-c3cccs3)cc12	9.9	1.8
CN(C)CCc1c[nH]c2ccc(-c3ccc(Cl)s3)cc12	303	7.6
Clc1ccc(-c2ccc3[nH]cc(CCN4CCCC4)c3c2)s1	476	31
